Laboratory results reported in patent publication US12473332B2, “Modified peptides and associated methods of use” (Advanced Technologies For Novel Therapeutics, LLC, priority 2019, dated 2025).
Where no end group is shown, it is not given here.

What was measured:
PKAc = PKAc (Homo sapiens, UniProt P17612); test: independent kinase assays on PKAc catalytic activity; format: biochemical
AKT2 = AKT2 (Homo sapiens, UniProt P31751); test: in vitro kinase assay, selectivity; format: biochemical; set-up: dose or concentration left out as unconfirmed
Method: (§1) To test the specificity/selectivity of ZaTa as the inhibitor of AKT1 versus the other major kinases, a series of in vitro kinase assays was performed at IC50 for AKT1 and at ten times higher concentrations. A panel of the following 32 kinases was first tested in vitro using the active form of each kinase and a specific substrate: AKT2, AKT3, PKA, PKCα, PKCγ, PI3Kβ, PI3Kδ, PI3Kγ, SGK, PAK2, PAK3, SAPK2/p38, Abl, CaMKII, CDK1/cyclinB, CDK5/p35, CK1, CK2, CSK, GSK3α, GSK3β, JNK1α1, MAPK1, p70S6K, PDGFRα, PDGFRβ, PDK1, PKG1α, TrkB, JAK2, JAK3, and Syk. […] However, at ten times higher concentration, ZaTa inhibited AKT2 (63%), PI3Kδ (72%), p70S6K (64%), SGK (73%), PAK3 (83%), JAK3 (79%), TrkB (84%), and Abl (42%). To confirm the in vitro inhibitory effect on these kinases in cells, a cell-based assay was used to determine the effect of labeled ZaTa on the phosphorylation levels of well-known intracellular substrates for each kinase (Zipfel, et al. (2004) Curr. Biol. 14:1222-1231; Wang, et al. (2003) Arch. Biochem. Biophys. 410:7-15; King, et al. (1998) Nature 396:180-183; Rangone, et al. (2004)Eur. J. Neurosci. 19:273-279; Middlemas, et al. (1994)J. Biol. Chem. 269:5458-5466; Huang, et al. (1999) J. Biol. Chem. 274:7870-7878). The results of this cell-based kinase assay confirmed that ZaTa could inhibit p70S6K besides AKT. […] Given that most of the above-listed kinases have no known inhibitor, it is contemplated that the ZaTa could be used at micromolar concentrations in in vitro studies to inhibit the activity of the select kinases.

Abl = Abl (Homo sapiens, UniProt P00519); test: in vitro kinase assay, selectivity; format: biochemical; set-up: dose or concentration left out as unconfirmed
Method: as §1

JAK3 = target: T1, JAK3 (Homo sapiens, UniProt P52333); test: in vitro kinase assay, selectivity; format: biochemical; set-up: dose or concentration left out as unconfirmed
T1 construct: phosphorylation levels of well-known intracellular substrates for each kinase; endogenous in cells
Method: as §1

PAK3 = PAK3 (Homo sapiens, UniProt O75914); test: in vitro kinase assay, selectivity; format: biochemical; set-up: dose or concentration left out as unconfirmed
Method: as §1

SGK = target: T2, SGK (Homo sapiens, UniProt O00141); test: in vitro kinase assay, selectivity; format: biochemical; set-up: dose or concentration left out as unconfirmed
T2 construct: phosphorylation levels of well-known intracellular substrates for each kinase; endogenous in cells
Method: as §1

TrkB = TrkB (Homo sapiens, UniProt Q16620); test: in vitro kinase assay, selectivity; format: biochemical; set-up: dose or concentration left out as unconfirmed
Method: as §1

p70S6K = target: T3, p70S6K (Homo sapiens, UniProt P23443); test: in vitro kinase assay, selectivity; format: biochemical; set-up: dose or concentration left out as unconfirmed
T3 construct: phosphorylation levels of well-known intracellular substrates for each kinase; endogenous in cells
Method: as §1

AKT = target: T4, AKT (Mus musculus, UniProt P31750); test: stereotactic injection into brain striatum, phosphorylation of AKT substrates; format: in vivo; settings: vs DMSO hemisphere
T4 construct: from tissue; host or cells: brain striatum, in vivo
Method: After the stereotactic injection of ZaTa peptide, a decrease in the phosphorylation level of AKT substrates in the striatum of a brain hemisphere was observed as compared to the other hemisphere that was injected with DMSO as the vehicle. […] As a specific substrate, the phosphorylation level of GSK-3β at Ser-9 was also evaluated. […] The decrease was specific to the AKT phosphorylation site on GSK-3β at Ser-9, since a change in the phosphorylation level of GSK-3β at Tyr-216 or GSK-3α at Tyr-279 was not observed. Moreover, the in vivo reduction of the phosphorylation of AKT substrates was more obvious at the injection site, since a significant change in the phosphorylation of AKT substrates in the frontal cortex or cerebellum between the two hemispheres was not observed.
The phenotypic consequence of disrupting the AKT-PKAc complex was also determined. ZaTa peptide was injected into the striatum of one hemisphere of the brain and DMSO, as vehicle, was injected into the other brain hemisphere of an adult C57BL/6 mouse under anesthesia. The brain was removed and dissected. Equal protein amounts from each hemisphere were subjected to immunoprecipitation by an anti-AKT antibody. […] To compare PKAc protein levels in the ZaTa- and vehicle-treated brain hemisphere lysates, western blot analysis was conducted.

PKA, PKC, CDKs = test: stereotactic injection into brain, phosphorylation of PKA, PKC and CDKs substrates; set-up: species or system mouse
Method: To analyze in vivo selectivity, ZaTa was injected into one hemisphere and DMSO in the other hemisphere, as above, and a series of western blot analyses was performed with phospho-specific antibodies which recognize a phosphorylated substrate or each one of the kinases that ZaTa inhibited at higher concentrations in vitro. […] Given the high functional and structural homology between p70S6K and AKT, the in vivo inhibitory effect of ZaTa on p70S6K was contemplated. Furthermore, the in vivo effect of ZaTa on the phosphorylation levels of substrates for PKA, PKC, CDKs using phospho-specific antibodies recognizing the phosphorylated consensus sites of these kinases was analyzed.
As a striatal specific substrate for PKA and CDK5, the phosphorylation level of DARPP-32 was determined at Thr-34 (the PKA site) or at Thr-75 (the CDK5 site) (Huang, et al. (1999) supra).

[1] = trypan blue staining, live and dead cell count; format: cell-based; settings: 12 to 72 hours
From the text: Therefore, in addition to capturing live images, cells were stained with trypan blue at different time intervals following treatment with ZaTa and counted by a light microscope using a hemocytometer.

primary neurons = test: TUNEL assay in primary cortical culture; format: cell-based; settings: 1 μM or 5 μM, 72-hour treatment, vs control peptide
Method: It is now well-established that AKT protects against apoptosis through phosphorylation and inhibition of pro-apoptotic mediators such as BAD, FOXO family members and IKK-β (Datta, et al. (1999) Genes Dev. 13:2905-2927). […] Primary neurons were treated with DMSO, 1 μM or 5 μM of either ZaTa or the control peptide for a duration of 1, 3, 16, 24, 48 or 72 hours. The number of apoptotic cells was counted following the TUNEL assay. […] The increase in the number of apoptotic neurons following treatment with ZaTa was consistent with its potent intra-neuronal inhibition of AKT.

T4 sequence (P31750 whole entry): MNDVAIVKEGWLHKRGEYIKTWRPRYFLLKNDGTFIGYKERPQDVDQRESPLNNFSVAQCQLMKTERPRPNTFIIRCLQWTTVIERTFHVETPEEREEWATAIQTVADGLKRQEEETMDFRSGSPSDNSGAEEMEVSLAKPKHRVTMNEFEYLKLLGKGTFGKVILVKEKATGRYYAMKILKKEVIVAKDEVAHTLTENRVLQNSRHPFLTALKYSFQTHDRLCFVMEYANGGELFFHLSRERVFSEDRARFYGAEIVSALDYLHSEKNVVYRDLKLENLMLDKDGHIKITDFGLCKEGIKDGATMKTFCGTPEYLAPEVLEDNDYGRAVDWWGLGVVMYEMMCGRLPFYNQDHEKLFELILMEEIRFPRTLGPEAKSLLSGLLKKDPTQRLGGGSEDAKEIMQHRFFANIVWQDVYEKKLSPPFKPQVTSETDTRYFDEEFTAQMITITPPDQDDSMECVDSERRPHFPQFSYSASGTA
T3 sequence (P23443 whole entry): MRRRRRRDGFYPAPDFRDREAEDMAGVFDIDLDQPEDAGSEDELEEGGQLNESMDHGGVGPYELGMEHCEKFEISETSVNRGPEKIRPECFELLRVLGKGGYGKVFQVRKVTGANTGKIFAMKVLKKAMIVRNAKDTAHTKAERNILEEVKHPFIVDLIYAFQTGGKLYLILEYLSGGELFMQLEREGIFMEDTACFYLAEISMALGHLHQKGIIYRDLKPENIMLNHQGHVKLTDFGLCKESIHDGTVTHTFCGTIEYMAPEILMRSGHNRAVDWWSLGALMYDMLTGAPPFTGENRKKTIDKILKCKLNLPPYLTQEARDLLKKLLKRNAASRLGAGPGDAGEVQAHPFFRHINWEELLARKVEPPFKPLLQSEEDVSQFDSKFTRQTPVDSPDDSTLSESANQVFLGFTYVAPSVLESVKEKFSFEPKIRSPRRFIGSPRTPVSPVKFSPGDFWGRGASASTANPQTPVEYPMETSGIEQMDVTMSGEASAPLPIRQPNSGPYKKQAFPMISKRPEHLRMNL
Abl, sequence (P00519 whole entry, species assumed): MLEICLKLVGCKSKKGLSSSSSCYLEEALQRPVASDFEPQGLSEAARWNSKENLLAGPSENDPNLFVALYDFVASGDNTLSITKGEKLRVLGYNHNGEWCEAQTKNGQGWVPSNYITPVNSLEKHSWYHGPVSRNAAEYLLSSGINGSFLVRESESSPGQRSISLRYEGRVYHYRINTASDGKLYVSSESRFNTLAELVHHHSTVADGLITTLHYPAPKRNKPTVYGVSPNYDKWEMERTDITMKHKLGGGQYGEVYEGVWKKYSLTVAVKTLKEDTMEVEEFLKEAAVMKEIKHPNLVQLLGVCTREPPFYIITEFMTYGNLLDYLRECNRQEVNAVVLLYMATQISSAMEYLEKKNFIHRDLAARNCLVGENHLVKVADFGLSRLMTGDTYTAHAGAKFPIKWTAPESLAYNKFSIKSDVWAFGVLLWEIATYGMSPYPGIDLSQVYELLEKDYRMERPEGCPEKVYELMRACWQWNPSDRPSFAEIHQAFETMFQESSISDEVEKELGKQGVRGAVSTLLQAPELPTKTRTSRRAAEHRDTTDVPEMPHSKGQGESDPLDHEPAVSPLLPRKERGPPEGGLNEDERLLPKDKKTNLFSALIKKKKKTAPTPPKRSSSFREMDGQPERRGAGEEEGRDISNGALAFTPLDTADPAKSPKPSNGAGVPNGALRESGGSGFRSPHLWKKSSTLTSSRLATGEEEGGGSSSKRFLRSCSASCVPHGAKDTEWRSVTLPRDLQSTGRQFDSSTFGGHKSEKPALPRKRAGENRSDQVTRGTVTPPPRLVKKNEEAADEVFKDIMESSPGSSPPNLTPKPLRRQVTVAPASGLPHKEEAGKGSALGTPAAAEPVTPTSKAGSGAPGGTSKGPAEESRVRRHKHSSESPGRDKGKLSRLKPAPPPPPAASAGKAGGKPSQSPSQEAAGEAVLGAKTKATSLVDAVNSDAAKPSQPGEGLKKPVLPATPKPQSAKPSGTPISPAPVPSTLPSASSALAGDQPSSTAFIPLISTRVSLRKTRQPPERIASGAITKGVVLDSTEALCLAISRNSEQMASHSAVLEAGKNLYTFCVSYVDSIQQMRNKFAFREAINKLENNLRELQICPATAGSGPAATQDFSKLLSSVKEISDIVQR
TrkB, sequence (Q16620 32-822, species assumed): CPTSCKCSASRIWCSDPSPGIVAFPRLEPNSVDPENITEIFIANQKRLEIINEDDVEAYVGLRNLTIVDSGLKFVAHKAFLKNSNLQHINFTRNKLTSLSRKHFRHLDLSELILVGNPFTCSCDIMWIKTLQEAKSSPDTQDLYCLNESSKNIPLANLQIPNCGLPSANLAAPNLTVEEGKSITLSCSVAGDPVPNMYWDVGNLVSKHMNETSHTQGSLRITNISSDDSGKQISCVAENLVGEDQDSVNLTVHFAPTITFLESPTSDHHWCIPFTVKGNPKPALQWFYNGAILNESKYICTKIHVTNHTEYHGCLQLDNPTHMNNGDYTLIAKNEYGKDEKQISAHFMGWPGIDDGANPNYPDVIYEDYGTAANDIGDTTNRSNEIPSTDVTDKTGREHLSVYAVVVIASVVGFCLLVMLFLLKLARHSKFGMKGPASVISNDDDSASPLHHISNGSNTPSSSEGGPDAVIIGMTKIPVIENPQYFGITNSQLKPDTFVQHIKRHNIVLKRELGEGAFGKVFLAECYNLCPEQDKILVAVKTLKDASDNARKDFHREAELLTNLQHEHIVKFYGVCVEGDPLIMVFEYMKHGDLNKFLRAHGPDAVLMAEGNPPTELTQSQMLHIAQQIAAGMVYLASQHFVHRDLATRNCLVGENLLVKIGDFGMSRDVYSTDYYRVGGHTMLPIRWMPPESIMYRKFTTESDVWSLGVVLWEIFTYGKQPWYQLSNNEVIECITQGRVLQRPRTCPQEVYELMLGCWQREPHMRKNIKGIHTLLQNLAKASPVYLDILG
T2 sequence (O00141 whole entry, species assumed): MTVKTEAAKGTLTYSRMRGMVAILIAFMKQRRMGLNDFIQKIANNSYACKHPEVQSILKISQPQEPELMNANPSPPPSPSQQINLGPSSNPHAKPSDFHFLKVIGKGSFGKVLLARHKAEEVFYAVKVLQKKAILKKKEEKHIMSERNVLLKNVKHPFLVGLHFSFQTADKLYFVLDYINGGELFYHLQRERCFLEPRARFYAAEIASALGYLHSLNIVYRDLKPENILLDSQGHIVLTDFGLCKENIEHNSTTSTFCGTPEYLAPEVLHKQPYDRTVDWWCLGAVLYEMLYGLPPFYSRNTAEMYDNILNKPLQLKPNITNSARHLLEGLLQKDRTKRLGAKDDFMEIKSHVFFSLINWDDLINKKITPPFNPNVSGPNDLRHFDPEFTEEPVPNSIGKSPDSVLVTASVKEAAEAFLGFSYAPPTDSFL
T1 sequence (P52333 whole entry, species assumed): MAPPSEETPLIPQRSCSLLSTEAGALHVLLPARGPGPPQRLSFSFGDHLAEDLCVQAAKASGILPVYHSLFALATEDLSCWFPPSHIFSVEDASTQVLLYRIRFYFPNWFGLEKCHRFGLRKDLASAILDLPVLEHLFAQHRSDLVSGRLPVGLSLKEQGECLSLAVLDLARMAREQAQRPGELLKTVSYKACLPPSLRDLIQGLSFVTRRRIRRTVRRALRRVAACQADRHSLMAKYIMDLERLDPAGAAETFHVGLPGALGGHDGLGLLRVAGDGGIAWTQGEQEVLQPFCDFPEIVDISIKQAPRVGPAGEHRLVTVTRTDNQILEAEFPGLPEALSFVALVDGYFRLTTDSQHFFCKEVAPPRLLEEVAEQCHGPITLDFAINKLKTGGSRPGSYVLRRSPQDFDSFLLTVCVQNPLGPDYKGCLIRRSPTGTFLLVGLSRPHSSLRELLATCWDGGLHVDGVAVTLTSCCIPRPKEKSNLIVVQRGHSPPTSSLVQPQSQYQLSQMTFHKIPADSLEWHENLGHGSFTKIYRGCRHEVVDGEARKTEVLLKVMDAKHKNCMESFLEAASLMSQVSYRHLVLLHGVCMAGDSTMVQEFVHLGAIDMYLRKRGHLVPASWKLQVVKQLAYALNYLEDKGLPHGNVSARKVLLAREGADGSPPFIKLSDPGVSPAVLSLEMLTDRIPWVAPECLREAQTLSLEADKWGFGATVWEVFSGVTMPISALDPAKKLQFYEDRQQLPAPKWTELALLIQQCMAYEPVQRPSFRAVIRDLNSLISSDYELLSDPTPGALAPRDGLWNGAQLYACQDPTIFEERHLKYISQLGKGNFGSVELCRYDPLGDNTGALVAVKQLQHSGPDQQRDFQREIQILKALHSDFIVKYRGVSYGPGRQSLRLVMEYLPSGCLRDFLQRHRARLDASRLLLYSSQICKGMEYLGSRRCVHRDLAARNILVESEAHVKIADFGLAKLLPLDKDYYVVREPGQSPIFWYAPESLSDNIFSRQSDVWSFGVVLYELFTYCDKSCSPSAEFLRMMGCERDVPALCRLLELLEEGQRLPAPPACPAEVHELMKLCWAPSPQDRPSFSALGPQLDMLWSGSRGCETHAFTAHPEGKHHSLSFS
AKT2, sequence (P31751 whole entry, species assumed): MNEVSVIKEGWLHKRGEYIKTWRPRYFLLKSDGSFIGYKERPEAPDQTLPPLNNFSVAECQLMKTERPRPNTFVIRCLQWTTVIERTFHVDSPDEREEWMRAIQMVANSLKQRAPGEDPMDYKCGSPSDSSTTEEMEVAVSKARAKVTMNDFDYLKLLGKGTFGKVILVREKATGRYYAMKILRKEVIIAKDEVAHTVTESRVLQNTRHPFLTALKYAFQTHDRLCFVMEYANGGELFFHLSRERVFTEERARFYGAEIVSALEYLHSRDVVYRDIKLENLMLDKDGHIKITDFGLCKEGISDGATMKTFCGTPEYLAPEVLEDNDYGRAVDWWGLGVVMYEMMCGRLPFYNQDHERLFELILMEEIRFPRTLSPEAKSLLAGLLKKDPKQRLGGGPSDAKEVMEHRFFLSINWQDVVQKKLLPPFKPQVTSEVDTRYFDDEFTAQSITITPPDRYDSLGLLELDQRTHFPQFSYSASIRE

Question: For “AKRVKGRTWTLCGTPEY [Peptide 53, A-K-R-V-K-G-R-T-W-T-L-C-G-T-P-E-Y]”, which “inhibitory effect on catalytic activity of PKAc” value (PKAc) is on record?
Answer: The value was “did not exhibit any inhibitory effect”.

Question: What about the inhibition (AKT2) of the same sequence?
Answer: The inhibition was 63%.

Question: What about the inhibition (Abl) of the same sequence?
Answer: Its inhibition is 42%.

Question: And the inhibition (JAK3)?
Answer: The inhibition was 79%.

Question: What about the inhibition (PAK3) of the same sequence?
Answer: The inhibition was 83%.

Question: And the inhibition (SGK)?
Answer: The inhibition was 73%.

Question: And the inhibition (TrkB)?
Answer: The inhibition was 84%.

Question: And the inhibition (p70S6K)?
Answer: Its inhibition is 64%.

Question: And the “phosphorylation level of AKT substrates in vivo” value (AKT; one hour after stereotactic injection)?
Answer: Its value is “significant decrease in the phosphorylation level of AKT substrates”.

Question: What about the “phosphorylation level of GSK-3β at Ser-9 in vivo” value (AKT; stereotactic injection) of the same sequence?
Answer: The value was “specific reduction”.

Question: And the “phosphorylation level of PKA, PKC and CDKs substrates in vivo” value (PKA, PKC, CDKs)?
Answer: The value was “significant changes in the phosphorylation level of PKA, PKC and CDKs substrates was not observed”.

Question: What about the “number of dead cells” value [1] of the same sequence?
Answer: Its value is “a significant increase in the number of dead cells was not seen”.

Question: What about the “number of TUNEL-positive cells” value (primary neurons) of the same sequence?
Answer: The value was “marked dose-dependent increase in the number of TUNEL-positive cells”.
